Measured values as given in ChEMBL document CHEMBL1201862, “PubChem BioAssay data set” (2004).
Calls of active or inactive are those of the source.

Assays:
[1] = molecular target: T1, Sentrin-specific protease 6 (Homo sapiens, UniProt Q9GZR1); format: functional;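 further: Luminescence-based dose-response confirmatory assay of SENP6 inhibition, following up an ultra-high-throughput screen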
T1 sequence (Q9GZR1 whole entry): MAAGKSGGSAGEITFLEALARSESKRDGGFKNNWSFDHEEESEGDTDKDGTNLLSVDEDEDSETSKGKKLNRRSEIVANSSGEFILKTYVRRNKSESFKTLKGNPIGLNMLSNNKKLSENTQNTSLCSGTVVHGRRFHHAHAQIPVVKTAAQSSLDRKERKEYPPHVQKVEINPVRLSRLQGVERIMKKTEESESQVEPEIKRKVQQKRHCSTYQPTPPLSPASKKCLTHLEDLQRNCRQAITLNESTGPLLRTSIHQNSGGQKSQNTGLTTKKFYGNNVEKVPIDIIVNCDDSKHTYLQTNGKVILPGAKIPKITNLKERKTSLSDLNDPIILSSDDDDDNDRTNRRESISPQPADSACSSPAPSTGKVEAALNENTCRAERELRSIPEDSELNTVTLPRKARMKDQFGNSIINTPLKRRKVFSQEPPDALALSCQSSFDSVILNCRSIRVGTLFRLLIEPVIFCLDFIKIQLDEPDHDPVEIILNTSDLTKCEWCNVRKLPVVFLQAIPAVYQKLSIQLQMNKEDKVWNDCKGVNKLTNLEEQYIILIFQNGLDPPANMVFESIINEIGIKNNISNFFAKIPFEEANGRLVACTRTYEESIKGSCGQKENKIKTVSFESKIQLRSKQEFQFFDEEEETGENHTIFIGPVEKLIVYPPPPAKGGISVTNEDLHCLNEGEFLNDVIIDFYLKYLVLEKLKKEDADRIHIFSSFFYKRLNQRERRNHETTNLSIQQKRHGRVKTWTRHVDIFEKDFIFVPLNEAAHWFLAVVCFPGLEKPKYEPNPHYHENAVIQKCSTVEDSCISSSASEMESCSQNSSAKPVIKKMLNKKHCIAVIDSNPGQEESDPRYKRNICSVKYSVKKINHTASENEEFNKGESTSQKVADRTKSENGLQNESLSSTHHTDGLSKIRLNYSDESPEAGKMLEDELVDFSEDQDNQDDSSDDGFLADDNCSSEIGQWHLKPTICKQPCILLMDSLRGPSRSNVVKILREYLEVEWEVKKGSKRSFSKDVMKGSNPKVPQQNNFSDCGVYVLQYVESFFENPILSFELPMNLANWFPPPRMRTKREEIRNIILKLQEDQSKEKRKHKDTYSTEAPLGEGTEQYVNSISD

[2] = molecular target: T2, Caspase-3 (Homo sapiens, UniProt P42574); format: functional;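 further: Dose-response selectivity test against caspase-3 for candidate inhibitors of sentrin-specific proteases (SENPs)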
T2 sequence (P42574 whole entry): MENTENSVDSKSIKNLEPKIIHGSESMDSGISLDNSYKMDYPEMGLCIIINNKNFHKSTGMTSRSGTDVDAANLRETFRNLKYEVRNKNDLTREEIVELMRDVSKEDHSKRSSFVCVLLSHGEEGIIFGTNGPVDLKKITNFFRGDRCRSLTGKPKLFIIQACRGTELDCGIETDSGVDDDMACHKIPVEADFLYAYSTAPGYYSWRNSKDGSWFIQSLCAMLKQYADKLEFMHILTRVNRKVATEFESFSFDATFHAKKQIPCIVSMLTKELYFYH

[3] = molecular target: T3, Sentrin-specific protease 7 (Homo sapiens, UniProt Q9BQF6); format: functional;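 further: Luminescence-based dose-response confirmation of ultra-high-throughput screening hits, measuring inhibition of SENP7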
T3 sequence (Q9BQF6 whole entry): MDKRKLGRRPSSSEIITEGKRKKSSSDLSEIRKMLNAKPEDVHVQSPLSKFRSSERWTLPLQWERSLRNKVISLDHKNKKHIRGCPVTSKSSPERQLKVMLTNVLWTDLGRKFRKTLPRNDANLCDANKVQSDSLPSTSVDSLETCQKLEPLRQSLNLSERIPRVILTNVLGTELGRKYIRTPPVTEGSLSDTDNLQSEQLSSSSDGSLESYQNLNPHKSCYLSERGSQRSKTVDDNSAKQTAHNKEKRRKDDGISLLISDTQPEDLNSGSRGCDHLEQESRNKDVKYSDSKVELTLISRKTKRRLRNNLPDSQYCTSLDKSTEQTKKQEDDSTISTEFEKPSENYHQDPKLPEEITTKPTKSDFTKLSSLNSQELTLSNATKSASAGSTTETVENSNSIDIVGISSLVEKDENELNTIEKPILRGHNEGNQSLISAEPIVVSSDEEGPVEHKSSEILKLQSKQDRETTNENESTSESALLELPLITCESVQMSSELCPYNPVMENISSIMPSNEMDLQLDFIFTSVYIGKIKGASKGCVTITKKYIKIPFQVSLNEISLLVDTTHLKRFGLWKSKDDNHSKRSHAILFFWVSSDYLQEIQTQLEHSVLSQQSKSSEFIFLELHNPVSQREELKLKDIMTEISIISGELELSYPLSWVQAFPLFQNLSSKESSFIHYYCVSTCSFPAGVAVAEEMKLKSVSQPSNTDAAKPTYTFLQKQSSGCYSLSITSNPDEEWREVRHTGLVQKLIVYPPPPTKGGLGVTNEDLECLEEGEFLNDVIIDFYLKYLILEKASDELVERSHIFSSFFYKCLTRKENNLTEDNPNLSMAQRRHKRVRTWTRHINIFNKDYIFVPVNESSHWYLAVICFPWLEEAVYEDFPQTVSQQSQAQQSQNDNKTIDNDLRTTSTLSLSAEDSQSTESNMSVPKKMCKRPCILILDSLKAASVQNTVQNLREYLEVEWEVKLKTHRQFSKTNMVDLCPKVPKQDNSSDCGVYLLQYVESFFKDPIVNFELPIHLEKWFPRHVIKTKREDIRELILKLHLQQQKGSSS

[4] = molecular target: T4, Sentrin-specific protease 8 (Homo sapiens, UniProt Q96LD8); format: functional;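 further: luminescence read-out of SENP8 inhibition, dose-response confirmation following an ultra-high-throughput screen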
T4 sequence (Q96LD8 whole entry): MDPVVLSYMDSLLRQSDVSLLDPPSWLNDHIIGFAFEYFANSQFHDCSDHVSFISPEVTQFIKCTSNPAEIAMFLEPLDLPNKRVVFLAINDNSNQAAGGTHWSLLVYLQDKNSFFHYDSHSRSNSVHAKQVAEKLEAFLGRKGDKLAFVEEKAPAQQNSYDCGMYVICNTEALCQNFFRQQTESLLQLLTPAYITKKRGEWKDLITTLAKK

[5] = molecular target: Cytochrome P450 3A4 (Homo sapiens, UniProt P08684); settings: Potency;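 further: confirmatory qHTS run detecting inhibitors and substrates of CYP3A4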
[6] = NIH-3T3 fibroblast cytotoxicity, dose response, cytotoxicity control, cell-based, fluorescence, Alamar Blue, secondary assay (AID 2327); format: functional;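 further: NIH-3T3 mouse fibroblasts cultured with fluconazole at 8 µg/mL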
[7] = C. albicans growth with fluconazole, confirmation, fluorescence, retest (AID 2467); format: functional, cell-based
[8] = molecular target: T5, Microphthalmia-associated transcription factor (Homo sapiens, UniProt O75030); assay: TRPM1 promoter luciferase signal decrease, dose response, MITF inhibitor project, cell-based, SK-MEL-5, cherry-picked, set 3 (AID 493073); format: functional
T5 sequence (O75030 whole entry): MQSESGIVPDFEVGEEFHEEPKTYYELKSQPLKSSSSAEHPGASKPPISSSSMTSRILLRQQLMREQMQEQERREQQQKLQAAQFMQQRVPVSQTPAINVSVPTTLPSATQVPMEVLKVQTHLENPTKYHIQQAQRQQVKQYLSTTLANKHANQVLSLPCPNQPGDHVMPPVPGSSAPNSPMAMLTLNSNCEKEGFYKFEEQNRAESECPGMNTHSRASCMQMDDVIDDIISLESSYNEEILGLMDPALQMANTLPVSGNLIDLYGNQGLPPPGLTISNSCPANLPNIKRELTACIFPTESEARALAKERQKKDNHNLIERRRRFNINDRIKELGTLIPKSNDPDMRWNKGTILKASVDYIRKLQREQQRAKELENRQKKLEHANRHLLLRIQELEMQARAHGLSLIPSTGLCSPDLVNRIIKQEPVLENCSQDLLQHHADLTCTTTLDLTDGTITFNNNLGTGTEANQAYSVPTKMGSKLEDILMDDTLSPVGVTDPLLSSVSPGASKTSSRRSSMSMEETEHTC

[9] = cytotoxicity in HEK-293T cells, dose response, cytotoxicity control for TCR NF-kB inhibitor project, luminescence, T-cell screen hits (AID 489026); format: functional, cell-based;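 further: cells exposed to compound about 14 hours before the viability readout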
[10] = cells; format: functional, cell-based
[11] = test system: H4; assay: Luminescence Cell-Based Dose Response HTS to Identify Activators of 5'UTR Stem-Loop Driven Prion Protein mRNA Translation in H4 Neuroglioblastoma Cells. [Related pubchem assays: 1829 (Project Summary), 1814 (Primary HTS)]; format: functional; settings: Homo sapiens
[12] = Luminescence Cell-Based Dose Confirmation HTS to Identify Activators of 5'UTR Stem-Loop Driven Alpha-Synuclein mRNA Translation in H4 Neuroglioblastoma Cells. [Related pubchem assays: 1829 (Project Summary), 1814 (Primary HTS)]; format: functional
[13] = cells; format: functional, cell-based; remark: listed apart in the source
[14] = Luminescence Cell-Based Dose Response HTS to Identify Activators of Luciferase Translation or Activity in H4 […] Cells. [Related pubchem assays: 1829 (Project Summary), 1814 (Primary HTS)]; format: functional
[15] = molecular target: T6, Protein skinhead-1 (Caenorhabditis elegans, UniProt P34707); format: functional
T6 sequence (P34707 whole entry): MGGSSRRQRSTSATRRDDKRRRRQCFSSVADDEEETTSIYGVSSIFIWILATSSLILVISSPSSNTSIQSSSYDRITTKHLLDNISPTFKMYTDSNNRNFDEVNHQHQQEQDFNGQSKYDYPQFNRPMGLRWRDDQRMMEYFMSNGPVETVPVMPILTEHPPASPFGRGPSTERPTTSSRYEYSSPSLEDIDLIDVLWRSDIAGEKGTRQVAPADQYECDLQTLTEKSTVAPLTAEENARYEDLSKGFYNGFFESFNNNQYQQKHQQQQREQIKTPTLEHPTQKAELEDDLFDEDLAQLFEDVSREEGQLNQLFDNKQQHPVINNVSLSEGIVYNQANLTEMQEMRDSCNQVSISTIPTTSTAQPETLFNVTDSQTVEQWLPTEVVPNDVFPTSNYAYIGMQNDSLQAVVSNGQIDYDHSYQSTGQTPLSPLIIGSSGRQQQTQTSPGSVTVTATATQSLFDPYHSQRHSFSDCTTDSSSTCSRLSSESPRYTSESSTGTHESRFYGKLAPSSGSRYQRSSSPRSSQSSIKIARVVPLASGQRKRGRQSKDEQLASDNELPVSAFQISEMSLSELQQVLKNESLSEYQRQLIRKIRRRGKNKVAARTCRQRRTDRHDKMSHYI

Sequence of Cytochrome P450 3A4 (P08684 whole entry): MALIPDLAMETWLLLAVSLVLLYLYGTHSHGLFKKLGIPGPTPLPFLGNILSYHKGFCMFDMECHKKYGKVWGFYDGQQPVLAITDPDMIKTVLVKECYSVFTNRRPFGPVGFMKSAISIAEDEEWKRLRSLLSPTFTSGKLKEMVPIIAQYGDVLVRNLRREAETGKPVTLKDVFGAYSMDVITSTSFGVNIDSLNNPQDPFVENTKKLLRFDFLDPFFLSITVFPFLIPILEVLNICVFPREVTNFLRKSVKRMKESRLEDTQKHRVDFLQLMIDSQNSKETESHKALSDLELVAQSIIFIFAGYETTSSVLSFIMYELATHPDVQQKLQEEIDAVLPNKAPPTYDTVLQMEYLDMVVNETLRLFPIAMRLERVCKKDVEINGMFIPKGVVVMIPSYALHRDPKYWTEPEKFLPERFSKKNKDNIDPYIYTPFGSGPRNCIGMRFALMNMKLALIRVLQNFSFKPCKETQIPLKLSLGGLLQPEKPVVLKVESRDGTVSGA

With O/C(=C\c1nc2ccccc2[nH]1)c1cccs1 the IC50 [1] was 8.18 µM (active), the IC50 [2] was 9.98 µM (active) and the IC50 [3] was 7.98 µM (active). For the same compound, the IC50 [4] was 13.1 µM (active).

In the case of CCCn1c(-c2ccc(F)cc2)nc2c(NCCN(C(C)C)C(C)C)nc(C)nc21, the AC50 [5] is reported as 10 µM (inconclusive).

In the case of S=c1ccss1 [DITHIOLETHIONE], the AC50 [5] is reported as 10 µM (inconclusive).

With C#CCCCCCCCCCCCC(O)CC(O)COC(C)=O (stereo not drawn) [AVOCADYNE ACETATE] the AC50 [5] was 39.8 µM (inconclusive).

With CC(=O)c1sc(N/N=C\c2ccccc2O)nc1C the IC50 [1] was 10.3 µM (active), the IC50 [2] was 11 µM (active) and the IC50 [3] was 3.4 µM (active). The IC50 [4] was 16.3 µM (active).

In the case of Cc1scc(C(=O)N/N=C/c2ccc([N+](=O)[O-])o2)c1C, the EC50 [6] is reported as > 150 µM (inactive), the EC50 [7] is reported as 1.48 µM (active) and the AC50 [8] is reported as 2.19 µM (active).

With Cc1nc(Sc2nnnn2C)c2c3c(sc2n1)CCC3 the IC50 [9] was > 80 µM (inactive) and the AC50 [8] was 4.98 µM (active).

For CCN(CC)CCCC(C)n1c(-c2ccccc2)nc2c(N3CCOCC3)nc(C)nc21 (stereo not drawn), the AC50 [5] was 15.8 µM (inconclusive).

For Cc1cc(NC(=O)COC(=O)c2ccc(S(=O)(=O)N3CCCc4ccccc43)cc2)no1, the IC50 [9] was > 80 µM (inactive).

In the case of COc1ccc(NS(=O)(=O)c2cc(NC(=O)CNC(=O)c3cccc(OC)c3)ccc2C)cc1, the AC50 [8] is reported as 11 µM (active).

In the case of COC(=O)c1cccc(C23CC4(C2)[C@H](CN(Cc2ccc(C(F)(F)F)cc2)[C@@H]4c2ccccc2)C3c2ccc(Cl)nc2)c1 (stereo partly drawn), the AC50 [5] is reported as 3.98 µM (inconclusive).

With COC1C=CO[C@@]2(C)Oc3c(C)c(O)c4c(O)c(c5c(nc6cc(C)ccn65)c4c3C2=O)NC(=O)/C(C)=C\C=CC(C)C(O)[C@@H](C)C(O)C(C)[C@@H](OC(C)=O)C1C (stereo partly drawn) the AC50 [5] was 7.94 µM (inconclusive).

With O=C(Nc1ccc(NC(=O)c2cccs2)c(Cl)c1)c1cccs1 the IC50 [1] was 24.3 µM (active), the IC50 [2] was 17.4 µM (active) and the IC50 [3] was 6.62 µM (active). For the same compound, the IC50 [4] was 27.6 µM (active).

In the case of N#Cc1nn(-c2c(Cl)cc(C(F)(F)F)cc2Cl)c(N)c1[S+]([O-])C(F)(F)F (stereo not drawn) [FIPRONIL], the AC50 [5] is reported as 25.1 µM (inconclusive).

For O=C(Cc1ccccc1F)Nc1ccc(SC(F)F)cc1, the IC50 [1] was > 100 µM (inactive), the IC50 [2] was 41.8 µM (active) and the IC50 [3] was 13.7 µM (active). For the same compound, the IC50 [4] was > 100 µM (inactive).

With O=C(NCC1CCCO1)c1cc(-c2ccccc2)on1 (stereo not drawn) the EC50 [10] was > 350 µM (not active), the EC50 [11] was > 120 µM (not active) and the EC50 [12] was 11.6 µM (active). The EC50 [13] was 17.2 µM (active) and the EC50 [14] was 35.5 µM (active).

In the case of COc1cc(C(=O)OCC(=O)Nc2cc(C)on2)ccc1OCc1ccccc1Cl, the EC50 [11] is reported as 20.6 µM (active), the EC50 [12] is reported as 7.95 µM (active) and the EC50 [14] is reported as 4.54 µM (active).

With O=C(/C=C/c1cccs1)c1ccc(N2CCOCC2)cc1 the IC50 [15] was > 100 µM (inactive), the IC50 [1] was 5.47 µM (active) and the IC50 [2] was 6.94 µM (active). For the same compound, the IC50 [3] was 2.77 µM (active) and the IC50 [4] was 5.04 µM (active).
